Measurements published in ChEMBL document CHEMBL1949506, “Discovery of CS-2100, a potent, orally active and S1P3-sparing S1P1 agonist” (Bioorg Med Chem Lett, 2012).

Assays:
Homo sapiens = organism: Homo sapiens; assay: Selectivity ratio of EC50 for human S1P3 receptor to EC50 for human S1P1 receptor
[1] = molecular target: Sphingosine 1-phosphate receptor 1 (Homo sapiens, UniProt P21453); assay: Agonist activity at human S1P1 receptor assessed as stimulation of [35S]GTPgamma binding; assay type: functional
Chain of Sphingosine 1-phosphate receptor 1 (P21453 whole entry): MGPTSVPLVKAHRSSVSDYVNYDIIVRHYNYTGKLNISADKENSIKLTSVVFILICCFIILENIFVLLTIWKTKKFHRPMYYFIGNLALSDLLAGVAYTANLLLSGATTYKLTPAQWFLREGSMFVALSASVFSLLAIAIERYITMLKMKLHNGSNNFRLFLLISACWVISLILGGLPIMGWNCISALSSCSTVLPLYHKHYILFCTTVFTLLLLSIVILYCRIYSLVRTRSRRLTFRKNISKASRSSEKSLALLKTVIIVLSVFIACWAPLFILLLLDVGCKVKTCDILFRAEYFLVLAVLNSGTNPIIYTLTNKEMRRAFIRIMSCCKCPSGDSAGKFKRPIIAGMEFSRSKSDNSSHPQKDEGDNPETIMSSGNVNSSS

[2] = molecular target: Sphingosine 1-phosphate receptor 3 (Homo sapiens, UniProt Q99500); assay: Agonist activity at human S1P3 receptor assessed as stimulation of [35S]GTPgamma binding; assay type: functional
Chain of Sphingosine 1-phosphate receptor 3 (Q99500 whole entry): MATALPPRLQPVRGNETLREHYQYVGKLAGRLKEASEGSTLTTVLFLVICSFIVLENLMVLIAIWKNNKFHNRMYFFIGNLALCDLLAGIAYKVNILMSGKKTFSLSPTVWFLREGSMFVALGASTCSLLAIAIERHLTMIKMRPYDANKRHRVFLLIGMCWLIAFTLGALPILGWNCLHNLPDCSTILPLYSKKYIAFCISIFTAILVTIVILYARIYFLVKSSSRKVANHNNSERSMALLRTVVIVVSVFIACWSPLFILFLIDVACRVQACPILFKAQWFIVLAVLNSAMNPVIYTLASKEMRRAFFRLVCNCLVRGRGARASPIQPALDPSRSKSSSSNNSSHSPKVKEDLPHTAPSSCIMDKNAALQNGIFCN

Rattus norvegicus [3] = assay: Immunosuppressive activity in LEW rat model assessed as inhibition of WKAH rat spleen cells-induced popliteal lymph node swelling at 1 mg/kg, po administered qd for 4 days measured at day 4 by host versus graft reaction analysis; assay type: functional; conditions: 96 h
Rattus norvegicus [4] = assay: Immunosuppressive activity in po dosed LEW rat model assessed as inhibition of WKAH rat spleen cells-induced popliteal lymph node swelling administered qd for 4 days measured at day 4 by host versus graft reaction analysis; assay type: functional; conditions: 96 h, read-out: ID50 (the source's name)

| SMILES | Ratio EC50 (Homo sapiens) | EC50 [1] [nM] | EC50 [2] [nM] | inhibition in vivo at 1 mg/kg (Rattus norvegicus [3]) [%] | ED50 (Rattus norvegicus [4]) [mg/kg] |
| --- | --- | --- | --- | --- | --- |
| Cc1ccc(Oc2ccc(-c3nc(-c4csc(CN5CC(C(=O)O)C5)c4)no3)cc2)cc1 | 109 | 110 | 12000 | – | – |
| Cc1cc(-c2nc(-c3csc(CN4CC(C(=O)O)C4)c3)no2)ccc1Oc1ccccc1 | 142 | 21 | 3000 | – | – |
| CCc1cc(CN2CC(C(=O)O)C2)sc1-c1noc(-c2ccc(Oc3ccccc3)c(OC)c2)n1 | – | 14 | > 20000 | – | – |
| CC(C)c1cc(CN2CC(C(=O)O)C2)sc1-c1noc(-c2ccc(Oc3ccccc3)cc2)n1 | 200 | 75 | 15000 | – | – |
| CCCCc1ccccc1Oc1ccc(-c2nc(-c3sc(CN4CC(C(=O)O)C4)cc3CC)no2)cc1 | – | 9 | > 20000 | 66 | – |
| CCc1cc(-c2noc(-c3ccc(Oc4ccccc4)cc3)n2)sc1CN1CC(C(=O)O)C1 | > 1670 | 12 | > 20000 | – | – |
| CCc1cc(CN2CC(C(=O)O)C2)sc1-c1noc(-c2ccc(Oc3ccccc3Cl)cc2)n1 | – | 6.5 | > 20000 | – | 0.461 |
| CCc1cc(CN2CC(C(=O)O)C2)sc1-c1noc(-c2ccc(Oc3ccccc3)c(C)c2)n1 | – | 7.5 | 6000 | – | – |
| O=C(O)C1CN(Cc2cc(-c3noc(-c4ccc(-c5ccccc5)cc4)n3)cs2)C1 | > 666 | 30 | > 20000 | – | – |
| CCc1cc(CN2CC(C(=O)O)C2)sc1-c1noc(-c2ccc(Oc3ccccc3OC)cc2)n1 | – | 4 | 15000 | 74 | – |
| CCCc1ccccc1Oc1ccc(-c2nc(-c3sc(CN4CC(C(=O)O)C4)cc3CC)no2)cc1 | – | 13 | > 20000 | 56 | – |
| Cc1cc(CN2CC(C(=O)O)C2)sc1-c1noc(-c2ccc(Oc3ccccc3)cc2)n1 | > 1820 | 11 | > 20000 | – | – |
| Cc1cccc(Oc2ccc(-c3nc(-c4csc(CN5CC(C(=O)O)C5)c4)no3)cc2)c1 | > 100 | 200 | > 20000 | – | – |
| O=C(O)C1CN(Cc2cc(-c3noc(-c4cccc(-c5ccccc5)c4)n3)cs2)C1 | > 23 | 850 | > 20000 | – | – |
| O=C(O)C1CN(Cc2ccc(-c3noc(-c4cc(-c5ccccc5)c(C(F)(F)F)s4)n3)cc2)C1 | 380 | 4.2 | 1600 | – | – |
| CCc1cc(CN2CC(C(=O)O)C2)sc1-c1noc(-c2ccc(Oc3ccccc3)c(F)c2)n1 | – | 5 | > 20000 | – | 0.142 |

| SMILES | Ratio EC50 (Homo sapiens) | EC50 [1] [nM] | EC50 [2] [nM] | inhibition in vivo at 1 mg/kg (Rattus norvegicus [3]) [%] | ED50 (Rattus norvegicus [4]) [mg/kg] |
| --- | --- | --- | --- | --- | --- |
| Cc1cc(-c2noc(-c3ccc(Oc4ccccc4)cc3)n2)sc1CN1CC(C(=O)O)C1 | > 800 | 25 | > 20000 | – | – |
| CCc1ccccc1Oc1ccc(-c2nc(-c3sc(CN4CC(C(=O)O)C4)cc3CC)no2)cc1 | – | 6.5 | 10000 | 62 | – |
| CCc1cc(CN2CC(C(=O)O)C2)sc1-c1noc(-c2ccc(Oc3ccccc3)c(Cl)c2)n1 | – | 5 | > 20000 | 49 | – |
| O=C(O)C1CN(Cc2cc(-c3noc(-c4ccc(OCc5ccccc5)cc4)n3)cs2)C1 | – | > 20000 | > 20000 | – | – |
| O=C(O)C1CN(Cc2csc(-c3noc(-c4ccc(Oc5ccccc5)cc4)n3)c2)C1 | > 588 | 34 | > 20000 | – | – |
| CCc1cc(CN2CC(C(=O)O)C2)sc1-c1noc(-c2ccc(Oc3ccccc3C)cc2)n1 | – | 3 | 4500 | 35 | – |
| O=C(O)C1CN(Cc2cc(-c3noc(-c4cc(-c5ccccc5)c(C(F)(F)F)s4)n3)cs2)C1 | 123 | 6.5 | 800 | – | – |
| Cc1cc(Oc2ccccc2)ccc1-c1nc(-c2csc(CN3CC(C(=O)O)C3)c2)no1 | > 33 | 600 | > 20000 | – | – |
| CCCc1cc(CN2CC(C(=O)O)C2)sc1-c1noc(-c2ccc(Oc3ccccc3)cc2)n1 | 433 | 30 | 13000 | – | – |
| Cc1ccccc1Oc1ccc(-c2nc(-c3csc(CN4CC(C(=O)O)C4)c3)no2)cc1 | 57 | 35 | 2000 | – | – |
| CCc1cc(CN2CC(C(=O)O)C2)sc1-c1noc(-c2ccc(Oc3ccccc3)cc2)n1 | > 5000 | 4 | > 20000 | – | 0.407 |
| O=C(O)C1CN(Cc2ccc(-c3noc(-c4ccc(Oc5ccccc5)cc4)n3)s2)C1 | 900 | 1 | 900 | – | – |
| CCc1cc(CN2CC(C(=O)O)C2)sc1-c1noc(-c2ccc(Oc3ccccc3C(C)C)cc2)n1 | – | 4.5 | 11000 | – | – |
| CCCOc1ccc(-c2nc(-c3csc(CN4CC(C(=O)O)C4)c3)no2)cc1 | > 333 | 60 | > 20000 | – | – |
| CCc1cc(CN2CC(C(=O)O)C2)sc1-c1noc(-c2ccc(Oc3ccccc3F)cc2)n1 | – | 8.5 | > 20000 | – | 0.369 |
| O=C(O)C1CN(Cc2cc(-c3noc(-c4ccc(Oc5ccccc5)cc4)n3)cs2)C1 | 541 | 8.5 | 4600 | – | – |
